Results reported in patent US8765787B2, “Methods of treatment of xerophthalmia with self-preserving ocular formulations of norketotifen” (Bridge Pharma, Inc., priority 2008, dated 2014).
Converted amounts (≈) assume the structure as drawn. Read-outs that look alike come from different tables or passages of the source. Values belong to the molecule of their own block, whether it stands above or below them.

Key:
[1] = system: human granulocytes (buffy coat); assay: Inhibition of histamine release from granulocytes (A23187-induced granulocyte activation); type: cell-based; settings: for IC50: 20 min, A23187 (5 μM), 20 min/37° C.
Experimental: In the present studies, effects on granulocyte activation was studied as inhibition of histamine release from human granulocytes (buffy coat) by norketotifen. The method is a modification of the method described by Nolte, H. et al., 1988. Granulocytes were obtained from human volunteers and mediator release was induced by incubation (20 min/37° C.) with the calcium ionophore A23187 (5 μM) in the presence or absence of a test article. Histamine was selected as an indicator for mediator release because of the ease with which histamine can be analyzed, using commercially available kits. The test articles were evaluated, in duplicate, at five concentrations and IC50-values were calculated.
The calcium ionophore A23187 was used to increase intracellular calcium concentration of the granulocytes.

[2] = Solubility of norketotifen (saturated solutions, HPLC); type: physicochemical; settings: for solubility: thermodynamic from solid
Experimental: Saturated solutions of norketotifen were prepared at room temperature by stirring, overnight sonication and filtering of the saturated supernatant solutions. An HPLC method for the determination of concentrations of norketotifen was developed:
The HPLC system was a HP 1050 with a variable wavelength detector. […] The relative standard deviation was approximately 0.3 percent for the main peak area.

rabbit eyes = assay: Ocular irritation test; type: in vivo, New Zealand White rabbits; settings: excipient-free solution 0.0345% in water or saline; rabbit eye, seven instillations of 0.1 ml
Experimental: New Zealand White rabbits, weighing 2 to 4 kilograms were used. Test formulation, in volumes of 0.1 ml were instilled into the conjunctival sac of six rabbit eyes of groups. Said volume of each formulation was repeatedly instilled every 30 minutes for 3 hours (a total of seven instillation into the eyes of rabbits. Ocular irritation was scored according to both Draize et al., 1944 and Kay and Calandra, 1962. Scorings were performed before each instillation and 30 minutes, 3 hours and 24 hours after the last instillation.
The formulations of norketotifen in Table 7 were prepared and tested and the results were compared with irritation by norketotifen in excipient-free solutions. […] In the present study, norketotifen HF was dissolved to an intended concentration of 0.276 percent in the various solutions, using stirring and over-night sonication at room temperature. After sonication, all solutions were filtered through a 0.45 μm non-pyrogenic MILLEX® HV filter unit before being used for ocular tests. Thus, all of the solutions used for the ocular irritation tests in Table 7 contained the highest possible concentrations of norketotifen HF.
Solutions of norketotifen were similarly prepared in excipient-free solutions containing only norketotifen HF 0.0345 percent by weight, dissolved in water or in saline, and filtered as described above. […]

H-1 = molecular target: T1, H-1 (Rattus norvegicus, UniProt P31390); assay: Antihistaminic (H-1) activity in vivo after oral administration (histamine wheal); parameters: species or system rats; settings: for Histamine (wheal area): 60 min before intradermal histamine; for Saline (wheal area): intradermal histamine vehicle
T1 construct: two intradermal injections of histamine; from tissue; host or cells: dorsal skin of live male rats (in vivo)
T1 sequence (P31390 whole entry): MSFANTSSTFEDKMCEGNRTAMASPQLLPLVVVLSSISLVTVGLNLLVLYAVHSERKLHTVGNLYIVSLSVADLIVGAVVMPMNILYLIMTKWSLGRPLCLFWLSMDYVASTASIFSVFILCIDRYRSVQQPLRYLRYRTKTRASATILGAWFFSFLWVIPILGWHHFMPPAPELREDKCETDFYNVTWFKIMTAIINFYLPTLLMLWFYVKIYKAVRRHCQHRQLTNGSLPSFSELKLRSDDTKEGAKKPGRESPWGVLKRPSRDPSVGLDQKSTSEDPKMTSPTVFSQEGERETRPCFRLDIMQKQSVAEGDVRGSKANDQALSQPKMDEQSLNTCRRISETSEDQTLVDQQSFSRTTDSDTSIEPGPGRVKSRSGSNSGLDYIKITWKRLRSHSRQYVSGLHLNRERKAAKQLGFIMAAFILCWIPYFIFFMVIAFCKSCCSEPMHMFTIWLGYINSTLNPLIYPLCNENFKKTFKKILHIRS
Experimental: Male rats (150-200 g) were starved overnight and twelve hours after dorsal depilation, the animals were dosed orally with the test compound(s). Four dorsal test areas were marked with permanent ink. Exactly 60 min after the dosing of the test compound, two intradermal injections of histamine (50 microliter; 1.0 mg/ml of histamine di-HCl) were performed, one on each side on the back of the animal. Two intradermal injections of the vehicle for the histamine solution were also performed. Evans blue dye (20 mg/kg) was injected iv 1 minute prior to the intra-dermal injections of histamine and the histamine vehicle. Twenty minutes were allowed for the wheal response to fully develop, whereupon the animals were euthanized and the dorsal skin containing the intradermal wheals was deflected. The blue spotted areas were measured in square millimeters and the duplicate vehicle wheal responses were averaged. […] The inhibition was calculated in percent difference from the corresponding vehicle baseline value.

[3] = Stability of norketotifen formulations; type: physicochemical; settings: pH 6.5; accelerated testing (55° C.)
Experimental: Stability of norketotifen formulations was studied after incubation at various temperatures, acidity and time intervals. The concentrations of norketotifen were measured after incubation periods of various lengths.

[4] = water, read-out: water solubility

IC50 [1]: 91 µM | solubility [2, 4]: ~12500 µg/mL (≈ 40.4 mM)
SMILES: CN1CCC(=C2c3ccccc3CC(=O)c3sccc32)CC1 [ketotifen]

SMILES: O=C1Cc2ccccc2C(=C2CCNCC2)c2ccsc21 [norketotifen FB]
solubility of free base in non-aqueous solvents ([2]; propylene glycol, glycerin, ethanol and isopropyl alcohol): can be dissolved

SMILES: O=C1Cc2ccccc2C(=C2CCNCC2)c2ccsc21 [norketotifen]
ocular irritation (Draize; Kay and Calandra scoring) (rabbit eyes): caused irritation | inhibition at 1 mg/kg (H-1; rat, po): 6% | inhibition at 10 mg/kg (H-1; rat, po): 83% | inhibition at 50 mg/kg (H-1; rat, po): 100% | absorption after oral administration (H-1; rats, oral): well absorbed | antihistaminic potency relative to diphenhydramine (H-1; rats, oral): more potent than the reference compound | Histamine effect (H-1; rats, oral, 1 mg/kg): 92 mm^2 | Histamine (wheal area) (H-1; rats, oral, 1 mg/kg): 114 ± 8 mm^2 | Saline (wheal area) (H-1; rats, oral, 1 mg/kg): 22 ± 1 mm^2 | Histamine effect (H-1; rats, oral, 10 mg/kg): 17 mm^2 | Histamine (wheal area) (H-1; rats, oral, 10 mg/kg): 39 ± 2 mm^2 | Saline (wheal area) (H-1; rats, oral, 10 mg/kg): 22 ± 1 mm^2 | Histamine effect (H-1; rats, oral, 50 mg/kg): 0 mm^2 | Histamine (wheal area) (H-1; rats, oral, 50 mg/kg): 10 ± 1 mm^2 | Saline (wheal area) (H-1; rats, oral, 50 mg/kg): 12 ± 1 mm^2 | antihistaminic activity relative to ketotifen (H-1; tested in vivo (Example 12)): about half of that of ketotifen | stability in solution formulations [3]: not stable | IC50 [1]: 9.2 µM | activity relative to ketotifen in inhibiting granulocyte activation (anti-inflammatory) ([1]; A23187-induced): about ten times more potent than ketotifen | soluble in polyethylene glycol (PEG 300) ([2]; PEG 300): up to 0.15 percent w/w | solubility ([2]; pH 8.6, aqueous buffer, read-out: solubility of norketotifen in water): 2100 µg/mL (≈ 7.11 mM) | solubility ([2]; pH 8.75, aqueous buffer, read-out: solubility of norketotifen in water): ~1000 µg/mL (≈ 3.39 mM) | soluble in propylene glycol ([2]; propylene glycol): up to 1.0 percent by weight | solubility ([2]; propylene glycol, organic solvent or mixture, read-out: solubility of norketotifen in propylene glycol): ~10000 µg/mL (≈ 33.9 mM) | can be dissolved in water ([2]; water): up to 0.216 percent by weight | solubility [2, 4]: ~2160 µg/mL (≈ 7.31 mM)
